System: 5/6 Nephrectomy induced chronic kidney disease (CKD) in rat
Assay: 5/6 Nephrectomy induced chronic kidney disease in rat: IS and PCS blood level, mortality
Assay type: in vivo, Wistar rats (Rattus norvegicus)
Settings: for IS Mean: Indoxyl Sulphate blood level, disease control 7.33; for IS Mean / PCS Mean: p.o. daily for 13 weeks; for PCS Mean: P-Cresyl Sulphate blood level, disease control 1.13; for IS % Decreased: decrease in Indoxyl Sulphate blood level compared to disease control; for IS % Decreased / PCS % Decreased: p.o. daily 13 weeks; for PCS % Decreased: decrease in P-Cresyl Sulphate blood level compared to disease control
Protocol: The effect of the compositions of the present invention and other test and reference compositions was studied in animals. For this study, screening effect of synergistic combination or composition/formulation comprising Inulin and other active ingredients against 5/6 Nephrectomy induced chronic kidney disease (CKD) in rat was performed. The following trials were carried out:
Eighty Four (84) female rats (Wistar rats (Rattus norvegicus)) divided into 14 groups (6 per group) were maintained in animal house in a light/dark atmosphere based on a 12 hour cycle having temperature and relative humidity in the range of 19 to 25±2° C. and 30-70%, respectively. To maintain the appropriate conditions, temperature and relative humidity were recorded three times daily. All animals were acclimatized for a minimum period of five days. Animals were maintained in the test setup for minimum 30 minutes once during the acclimatization period to reduce the stress. Animals were weighed on the day of receipt and observed daily for abnormalities if any. Detailed records of acclimatization were also maintained. Rats were housed 3 per cage in clean, sterilized Polypropylene cages. During complete experiment, animals were supplied with the standard certified rat pellet feed and drinking water treated by the reverse osmosis ad libitum.
In order to evaluate the activity against chronic kidney disease, eighty four (84) rats were screened and divided into Fourteen (14) groups. For a comparative analysis, groups were divided as normal control (Group 1 (G1)), sham Control (Group 2 (G2)), disease control (Group 3 (G3)), treatment groups with individual components (Group 4 (G4), Group 5 (G5) and Group 6 (G6) as Inulin, Betaine and Resistant Starch respectively), test composition (Group 7 (G7) to Group 11 (G11) (Combination of Inulin with Betaine at different dose level), test composition Group 12 (G12) to Group 13 (G13) (Combination of Inulin, Betaine and Resistant Starch) and reference standard (Group 14 (G14)) (Activated Charcoal). Table 1 provides the details of the various groups and treatments conducted in the trial wherein G4 to G14 are treatment groups. Experiment was carried out for 3 months in two stages.
The animals under consideration were examined for a study period of 13 weeks and two-stage surgical procedure for kidney ligation and removal were performed.
Stage one: A ventral midline incision into the abdomen was made to expose the animal's left kidney and the organ was freed from the surrounding tissue. A piece of suture was placed and ligated around each pole of the kidney at its one-third position. The one-third kidney on each pole was excised beyond the ligatures and the abdominal incision was closed.
Stage two: This procedure was performed 7 days after stage one. The animals were placed in ventral recumbency and an incision was made parallel to the midline. The abdominal cavity was entered, and the right kidney was made free from the surrounding tissue. The kidney was gently pulled out from the incision and the adrenal gland was freed and replaced into the abdominal cavity. The renal blood vessels and the ureter were ligated or cauterized. The kidney was then removed by transecting the vessels and ureter just distal to the ligature or cauterized section. The skin incision was closed with wound clips.
Treatment: All treatment groups were treated on daily basis for 13 weeks after stage two of surgery. Blood collection and biochemistry analysis were done after completion of the treatment of all treated groups at the end of 13th week treatment.

Molecule | IS Mean [mg/L] | PCS Mean [mg/L] | IS % Decreased [%] | PCS % Decreased [%]
C[N+](C)(C)CC(=O)O [Betaine] | 7.01 | 1.09 | 4.37 | 3.54
Resistant Starch [RS] | 6.5 | 1.01 | 11.33 | 10.62
Inulin | 5.55 | 0.84 | 24.29 | 25.66
